SMILES strings stand for the structures. Bounds are passed on as bounds.

One test relates to monocistronic NK5.1 HCV replicon in Huh7 cells. Briefly: HCV replicon assay, monocistronic replicon cell line. The test is classed as cell-based, hepatitis C virus. Conditions: Hepatitis C virus, Huh-7, 72 h; Table 1; monocistronic replicon in Huh7 cells, 3 days incubation, HCV RNA/GAPDH RNA by TaqMan RT-PCR; read-out: Mono EC50 Median. In outline: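 Huh7 cells carrying the monocistronic NK5.1 replicon, seeded 24 h before dosing, were exposed to six-point half-log compound series (0.6% DMSO) for 3 days at 37 °C. Replicon RNA was quantified by TaqMan RT-PCR, normalised to GAPDH and compared with DMSO controls to derive EC50.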
For orientation: Replicon systems follow genome replication, usually without infectious particles.
In the case of `COc1ccc(O)c(-c2ccnn2Cc2ccc3ccccc3n2)c1` [Compound 109, 4-Methoxy-2-(2-quinolin-2-ylmethyl-2H-pyrazol-3-yl)-phenol], the EC50 is over 32 µM.
On the same count and under the same terms, for `Oc1ccc2ccccc2c1-c1nc(-c2cc(C(F)(F)F)ccc2F)no1` [Compound 136, 1-[3-(2-Fluoro-5-trifluoromethyl-phenyl)-[1,2,4]oxadiazol-5-yl]-naphthalen-2-ol] the value was over 32 µM; for `Cc1cccnc1-c1noc(-c2ccccc2O)n1` [Compound 188, 2-[3-(3-Methyl-pyridin-2-yl)-[1,2,4]oxadiazol-5-yl]-phenol], over 32 µM; for `Oc1ccc(Br)cc1-c1ccn(-c2ccccn2)n1` [Compound 97, 4-Bromo-2-(1-pyridin-2-yl-1H-pyrazol-3-yl)-phenol], 22 µM.
On to `COc1ccc(O)c(-c2ccn(Cc3ccccn3)n2)c1` [Compound 113, 4-Methoxy-2-(1-pyridin-2-ylmethyl-1H-pyrazol-3-yl)-phenol], for which the EC50 is over 32 µM.
Regarding `COc1ccc(OCc2ccccc2)c(-c2ccn(Cc3ccccn3)n2)c1` [Compound 114, 2-[3-(2-Benzyloxy-5-methoxy-phenyl)-pyrazol-1-ylmethyl]-pyridine], the EC50 turned out to be 9.5 µM.
On the same count and under the same terms, next, `COc1cccc(-c2nc(-c3ncccc3[N+](=O)[O-])no2)c1` [Compound 165, 2-[5-(3-Methoxy-phenyl)-[1,2,4]oxadiazol-3-yl]-3-nitro-pyridine]: 18 µM; `COc1cccnc1-c1noc(-c2cc(C)ccc2O)n1` [Compound 250, 2-[3-(3-Methoxy-pyridin-2-yl)-[1,2,4]oxadiazol-5-yl]-4-methyl-phenol]: 2 µM; `Oc1ccc(Br)cc1-c1cc(-c2ncccc2C(F)(F)F)on1` [Compound 128, 4-Bromo-2-[5-(3-trifluoromethyl-pyridin-2-yl)-isoxazol-3-yl]-phenol]: over 32 µM.
In the case of `Oc1ccc(Br)cc1-c1cc(-c2ccccn2)on1` [Compound 130, 4-Bromo-2-(5-pyridin-2-yl-isoxazol-3-yl)-phenol], the EC50 stood at 11 µM.
Same read-out and setting: for `COc1ccc(-c2cc(C(=O)O)nn2-c2ncccc2C(F)(F)F)cc1` [Compound 58] the value was over 32 µM; for `Cc1cc(-c2cc(C)c(C)cc2O)n(-c2ccccc2C)n1` [Compound 10, 4,5-Dimethyl-2-(5-methyl-2-o-tolyl-2H-pyrazol-3-yl)-phenol], over 19 µM.
Still for that read-out and setting: next, `COc1cc(O)c(-c2nc(-c3ncccc3-c3ccccc3)no2)c(OC)c1` [Compound 233, 3,5-Dimethoxy-2-[3-(3-phenyl-pyridin-2-yl)-[1 ,2,4]oxadiazol-5-yl]-phenol]: 2.1 µM.
Consider `CCOC(=O)c1cc(-c2ccc3ccccc3c2)n(-c2ncccc2[N+](=O)[O-])n1` [Compound 69], for which the EC50 was found to be 24 µM.
Still for that read-out and setting: for `COc1ccc(O)c(-c2ccn(Cc3nccc(OC)c3OC)n2)c1` [Compound 105, 2-[1-(3,4-Dimethoxy-pyridin-2-ylmethyl)-1H-pyrazol-3-yl]-4-methoxy-phenol] the value was over 32 µM.

The test is the same for the next values; noted with them: Hepatitis C virus, Huh-7, 72 h; table T3 (compounds 471-640); monocistronic replicon in Huh7 cells, 3 days incubation, HCV RNA/GAPDH RNA by TaqMan RT-PCR; read-out: Mono EC50 Median.
Regarding `Nc1cccnc1-c1n[nH]c(-c2cc(Br)ccc2O)n1` [Compound 555, 2-[5-(3-amino-pyridin-2-yl)-2H-[1,2,4]triazol-3-yl]-4-bromo-phenol], the EC50 was over 3.2 µM.
Regarding `O=[N+]([O-])c1cccc(-c2nc(-c3ncccc3C(F)(F)F)n[nH]2)c1` [Compound 544, 2-[5-(3-Nitro-phenyl)-1H-[1,2,4]triazol-3-yl]-3-trifluoromethyl-pyridine], the EC50 is over 19 µM.
Turning to `Nc1ccc(-c2n[nH]c(-c3cc(Br)ccc3O)n2)nc1` [Compound 592, 2-[5-(5-Amino-pyridin-2-yl)-2H-[1,2,4]triazol-3-yl]-4-bromo-phenol], the EC50 is over 32 µM.
Regarding `Oc1ccc(Cl)cc1-c1nc(-c2ccc(C(F)(F)F)cn2)n[nH]1` [Compound 511, 4-Chloro-2-[5-(5-trifluoromethyl-pyridin-2-yl)-2H-[1,2,4]triazol-3-yl]-phenol], the EC50 is over 19 µM.
As to `CCOc1cccc(-c2nc(-c3ncccc3Br)n[nH]2)c1O` [Compound 489, 2-[5-(3-Bromo-pyridin-2-yl)-2H-[1,2,4]triazol-3-yl]-6-Ethoxy-phenol], the half-maximal effective concentration (EC50) was determined as 22 µM.
Turning to `Cc1cccnc1-c1nc(-c2cc(Cl)ccc2O)n(C)n1` [Compound 610, 4-Chloro-2-[2-methyl-5-(3-methyl-pyridin-2-yl)-2H-[1,2,4]triazol-3-yl]-phenol], the EC50 was found to be 2.5 µM.
With `CCOc1cccc(-c2nc(-c3ncccc3C(F)(F)F)n[nH]2)c1O` [Compound 536, 6-Ethoxy-2-[5-(3-trifluoromethyl-pyridin-2-yl)-2H-[1,2,4]triazol-3-yl]-phenol], the EC50 was over 19 µM.
With `Oc1ccc2ccccc2c1-c1nc(-c2ncccc2Br)n[nH]1` [Compound 503, 1-(5-(3-Bromo-pyridin-2-yl)-2H-[1,2,4]triazol-3-yl)-naphthalen-2-ol], the EC50 was 6.9 µM.
Turning to `FC(F)(F)c1ccc(-c2n[nH]c(-c3c(Cl)cccc3Cl)n2)nc1` [Compound 527, 2-[5-(2,6-Dichloro-phenyl)-1H-[1,2,4]triazol-3-yl]-5-trifluoromethyl-pyridine], the EC50 is over 19 µM.
Regarding `c1ccc(-c2ncn(-c3ccccn3)n2)nc1` [Compound 639], the EC50 was over 32 µM.
Turning to `CCN(CC)c1ccc(-c2nc(-c3ncccc3Br)n[nH]2)c(O)c1` [Compound 498, 2-[5-(3-Bromo-pyridin-2-yl)-2H-[1,2,4]triazol-3-yl]-5-Diethylamino-phenol], the EC50 stood at 5.8 µM.

Staying with this test, now noted: Hepatitis C virus, Huh-7; monocistronic NK5.1 HCV replicon in Huh7 cells; median value; read-out: Mono EC50 Median.
In the case of `COc1ccccc1-c1nnc(-c2ccccc2[N+](=O)[O-])o1` [Compound 328, 2-(2-Methoxy-phenyl)-5-(2-nitro-phenyl)-[1,3,4]oxadiazole], the EC50 was over 32 µM.
Consider `Oc1ccccc1-c1nnc(-c2ccccc2F)o1` [Compound 319, 2-[5-(2-Fluoro-phenyl)-[1,3,4]oxadiazol-2-yl]-phenol], for which the EC50 came out at 18 µM.
With `Oc1ccc2ccccc2c1-c1nnc(-c2ccco2)o1` [Compound 307, 1-(5-Furan-2-yl-[1,3,4]oxadiazol-2-yl)-naphthalen-2-ol], the EC50 was over 32 µM.
`CC(C)(C)c1ccc(O)c(-c2nc(-c3cnccc3C(F)(F)F)n[nH]2)c1` [Compound 411, 4-tert-Butyl-2-[5-(4-trifluoromethyl-pyridin-3-yl)-2H-[1,2,4]triazol-3-yl]-phenol]: the concentration giving a half-maximal response (EC50) came out at 10 µM.
As to `Cc1cccnc1-c1n[nH]c(-c2ccc(OCc3ccccc3)cc2O)n1` [Compound 447, 5-Benzyloxy-2-(5-(3-methyl-pyridin-2-yl)-2H-[1,2,4]triazol-3-yl)-phenol], the EC50 is over 10 µM.
As to `O=[N+]([O-])c1ccc(O)c(-c2nc(-c3cnccc3C(F)(F)F)n[nH]2)c1` [Compound 412, 4-Nitro-2-[5-(4-trifluoromethyl-pyridin-3-yl)-2H-[1,2,4]triazol-3-yl]-phenol], the EC50 is over 19 µM.
As for `CCCOc1ccc(O)c(-c2nc(-c3ncccc3C)no2)c1` [Compound 272, 2-[3-(3-Methyl-pyridin-2-yl)-[1,2,4]oxadiazol-5-yl]-4-propoxy-phenol], the EC50 is over 32 µM.
Take `Oc1ccc2ccccc2c1-c1nc(-c2ncccc2Br)no1` [Compound 256, 1-[3-(3-Bromo-pyridin-2-yl)-[1,2,4]oxadiazol-5-yl]-naphthalen-2-ol]: the EC50 came out at 2.1 µM.
Same read-out and setting: for `Cc1cccc(-c2n[nH]c(-c3cccc([N+](=O)[O-])c3)n2)n1` [Compound 404, 6-Methyl-2-[5-(3-nitro-phenyl)-1H-[1,2,4]triazol-3-yl]-pyridine] the value was over 19 µM.
For `Cc1cccnc1-c1noc(-c2cc(Br)cc(Br)c2O)n1` [Compound 280, 2,4-Dibromo-6-[3-(3-methyl-pyridin-2-yl)-[1,2,4]oxadiazol-5-yl]-phenol], the EC50 was found to be 7.4 µM.
For `Brc1ccccc1-c1nc(-c2nccc3ccccc23)n[nH]1` [Compound 437], the EC50 came to 2.7 µM.
As to `COc1cccnc1-c1noc(-c2cc(C)ccc2O)n1` [Compound 250, 2-[3-(3-Methoxy-pyridin-2-yl)-[1,2,4]oxadiazol-5-yl]-4-methyl-phenol], the EC50 was found to be 2 µM.
Take `Cc1cccnc1-c1n[nH]c(-c2ccc(C(C)C)cc2)n1` [Compound 460, 2-[5-(4-Isopropyl-phenyl)-1H-[1,2,4]triazol-3-yl]-3-methyl-pyridine]: the EC50 turned out to be 3 µM.
As for `Fc1ccccc1-c1nnc(-c2ncc(C(F)(F)F)cc2Cl)o1` [Compound 349, 3-Chloro-2-[5-(2-fluoro-phenyl)-[1,3,4]oxadiazol-2-yl]-5-trifluoromethyl-pyridine], the EC50 is over 32 µM.
On to `Cc1cccnc1-c1n[nH]c(-c2cc([N+](=O)[O-])ccc2O)n1` [Compound 442, 4-Nitro-2-(5-(3-methyl-pyridin-2-yl)-2H-[1,2,4]triazol-3-yl)-phenol], for which the EC50 was 7.9 µM.
In the case of `COc1ccc(F)c(-c2nc(-c3ncccc3C)n[nH]2)c1` [Compound 459, 2-[5-(2-Fluoro-5-methoxy-phenyl)-1H-[1,2,4]triazol-3-yl]-3-methyl-pyridine], the EC50 was over 32 µM.
For `CC1(C)CCN2CCC(C)(C)c3c(O)c(-c4nc(-c5cnccc5C(F)(F)F)n[nH]4)cc1c32` [Compound 425, 1,1,7,7-Tetramethyl-9-[5-(4-trifluoromethyl-pyridin-3-yl)-2H-[1,2,4]triazol-3-yl]-2,3,6,7-tetrahydro-1H,5H-pyrido[3,2,1-ij]quinolin-8-ol], the EC50 was 2.9 µM.
Same read-out and setting: for `Cc1ccccc1-c1nnc(-c2ccccc2[N+](=O)[O-])o1` [Compound 315, 2-(2-Nitro-phenyl)-5-o-tolyl-[1,3,4]oxadiazole] the value was over 32 µM.
Regarding `COc1ccccc1-c1nnc(-c2ncccc2C(F)(F)F)o1` [Compound 345], the EC50 was 8.3 µM.
Consider `COc1ccc(-c2nc(-c3ccc(N)cn3)no2)c(O)c1` [Compound 253], for which the EC50 is over 32 µM.
`COc1cc(O)c(-c2nc(-c3ncccc3-c3ccccc3)no2)c(OC)c1` [Compound 233, 3,5-Dimethoxy-2-[3-(3-phenyl-pyridin-2-yl)-[1 ,2,4]oxadiazol-5-yl]-phenol]: the EC50 stood at 2.1 µM.

Usually EC50 stands for the concentration giving half of the maximal effect.

The values above are taken from patent US20050075375A1 (priority 2003, published 2005).
